Experimental data reported in article PMC7961786, “Magic Peptide: Unique Properties of the LRR11 Peptide in the Activation of Leukotriene Synthesis in Human Neutrophils” (International Journal of Molecular Sciences, 2021).
“Also recorded” adds a separate entry of the source.

System: human neutrophils (PMNLs), 5-LOX product synthesis
Experiment: 5-LOX metabolite synthesis in human neutrophils stimulated with opsonized S. typhimurium (HPLC)
Format: cell-based

Substance	effect of LRR11 on 5-LOX product synthesis in combination with ODN or LPS (1 µM LRR11 added simultaneously with 1 µM ODN or LPS, then opsonized S. typhimurium, Figure 1)	effect of LRR11 on FPS-ZM1 action on leukotriene synthesis (1 µM LRR11 with ODN after 0.15 µM FPS-ZM1, Figure 3)	LTB4 accumulation, dependence on way of LRR11 addition ((1) LRR11 15 min before ODN, (2) simultaneously but independently, (3) 1-h pre-mixed)	effect on 5-LOX activity / leukotriene synthesis (ODN alone, 1 µM, 20 min, then opsonized S. typhimurium 15 min, Figure 1, five independent experiments in duplicate)	Σ 5-LOX metabolites (Table S1, 2×10^7 PMNLs, 15 min at 37 °C without or with 5 µM Chloroquine, then ODN, after 20 min 0.5×10^9 opsonized S. typhimurium for 15 min, mean ± SEM, three independent experiments) [ng/107 PMNLs]
QLRKLNLSFNYQKRVSFAHLSLAPSFGSLV [LRR11, 30 amino acid peptide from leucine-rich repeat of TLR9]	does not significantly change the effects of G-rich ODN and lipopolysaccharides (LPS), but obviously enhances the effects of CpG-ODNs; also recorded: stimulated the formation of the 5-LOX products; also recorded: synergistically amplifying each other’s effects	its action is nullified in the presence of LRR11 peptide; also recorded: LRR11 abolished the effects of FPS-ZM1 and restored the level of leukotriene synthesis	only pathways (2) and (3) provide a significant effect on LTB4 accumulation		
5′-tcgtcgttttcggcgcgcgccg-3′ (DNA TCGTCGTTTTCGGCGCGCGCCG; chemistry not fully specified) [C-CpG]				increased leukotriene synthesis	42.1 ± 4.2
